Source: patent US10414769B2, “5,8-dimethyl-9-phenyl-5,8-dihydro-6H-pyrazolo[3,4-h]quinazolin-2-yl)-(1H-pyrazol-3-yl)-amines as IGF-1R/IR inhibitors” (Boehringer Ingelheim International GmbH, priority 2015, dated 2019)

Experiments:
Format in all cases: biochemical
SRPK2 = biological target: T1, SRPK2 (Homo sapiens, UniProt P78362); assay: Z'-LYTE kinase selectivity assay SRPK2
T1 construct: purchased Life Technologies PV 3829
From the text: (§1) In order to compare the kinase selectivity of compounds (I) according to the invention with known prior art compounds the commercially provided SelectScreen® Kinase Profiling Service (Z′-LYTE®) was used (Life Technologies GmbH, Darmstadt, Germany) to investigate the ability of the compounds to inhibit a number of different, representatively selected human kinases. Further details regarding this service are available on the Life Technologies website at
(§2) The Z′-LYTE® biochemical assay employs a fluorescence-based, coupled-enzyme format and is based on the differential sensitivity of phosphorylated and non-phosphorylated peptides to proteolytic cleavage. The peptide substrate is labeled with two fluorophores—one at each end—that make up a FRET pair.
(§3) In the primary reaction, the kinase transfers the gamma-phosphate of ATP to a single tyrosine, serine or threonine residue in a synthetic FRET-peptide. In the secondary reaction, a site-specific protease recognizes and cleaves non-phosphorylated FRET-peptides. Phosphorylation of FRET-peptides suppresses cleavage by the Development Reagent. Cleavage disrupts FRET between the donor (i.e., coumarin) and acceptor (i.e., fluorescein) fluorophores on the FRET-peptide, whereas uncleaved, phosphorylated FRET-peptides maintain FRET. A ratiometric method, which calculates the ratio (the Emission Ratio) of donor emission to acceptor emission after excitation of the donor fluorophore at 400 nm, is used to quantitate reaction progress, as shown in the equation below.
(§4) The Test Compounds are screened at 1 μM.
The 2×SRPK2 (# PV 3829)/Ser/Thr 07 (Z′-LYTE® Kinase Assay Kit—Ser/Thr 7 Peptide, # PV 3180) mixture is prepared in 50 mM HEPES pH 7.5, 0.01% BRIJ-35, 10 mM MgCl2, 1 mM EGTA. The final 10 μL Kinase Reaction consists of 3.76-52 ng SRPK2 and 2 μM Ser/Thr 07 in 50 mM HEPES pH 7.5, 0.01% BRIJ-35, 10 mM MgCl2, 1 mM EGTA. After the 1 hour Kinase Reaction incubation, 5 μL of a 1:65000 dilution of Development Reagent A is added.

CHEK1 (CHK1) = biological target: T2, CHEK1 (CHK1) (Homo sapiens, UniProt O14757); assay: Z'-LYTE kinase selectivity assay CHEK1
T2 construct: purchased Life Technologies P 3040
T2 sequence (O14757 1-476): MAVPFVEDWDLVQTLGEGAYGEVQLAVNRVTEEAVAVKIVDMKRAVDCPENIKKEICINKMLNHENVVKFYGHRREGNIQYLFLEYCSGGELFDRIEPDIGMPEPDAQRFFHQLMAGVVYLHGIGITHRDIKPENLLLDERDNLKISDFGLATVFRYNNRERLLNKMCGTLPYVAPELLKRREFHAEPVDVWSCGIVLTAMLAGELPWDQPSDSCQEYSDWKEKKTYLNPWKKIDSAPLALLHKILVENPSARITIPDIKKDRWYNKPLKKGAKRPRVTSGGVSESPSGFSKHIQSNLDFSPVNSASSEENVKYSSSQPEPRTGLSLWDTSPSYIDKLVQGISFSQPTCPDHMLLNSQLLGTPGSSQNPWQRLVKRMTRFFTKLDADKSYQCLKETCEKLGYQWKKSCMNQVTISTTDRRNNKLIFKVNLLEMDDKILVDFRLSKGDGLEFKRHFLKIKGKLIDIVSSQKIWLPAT
From the text: as §1, §2, §3, §4
The 2×CHEK1 (CHK1) (# P 3040)/Ser/Thr 19 (Z′-LYTE® Kinase Assay Kit—Ser/Thr 19 Peptide, # PV 4529) mixture is prepared in 50 mM HEPES pH 7.5, 0.01% BRIJ-35, 10 mM MgCl2, 1 mM EGTA. The final 10 μL Kinase Reaction consists of 2.04-35 ng CHEK1 (CHK1) and 2 μM Ser/Thr 19 in 50 mM HEPES pH 7.5, 0.01% BRIJ-35, 10 mM MgCl2. 1 mM EGTA. After the 1 hour Kinase Reaction incubation, 5 μL of a 1:256 dilution of Development Reagent A is added.

EGFR (ErbB1) = biological target: T3, EGFR (ErbB1) (Homo sapiens, UniProt P00533); assay: Z'-LYTE kinase selectivity assay EGFR
T3 construct: purchased Life Technologies PV 3872
From the text: as §1, §2, §3, §4
The 2×EGFR (ErbB1) (# PV 3872)/Tyr 04 (Z′-LYTE® Kinase Assay Kit—Tyrosine 4 Peptide, # PV 3193) mixture is prepared in 50 mM HEPES pH 7.5, 0.01% BRIJ-35, 10 mM MgCl2, 4 mM MnCl2, 1 mM EGTA, 2 mM DTT. The final 10 μL Kinase Reaction consists of 1.1-8 ng EGFR (ErbB1) and 2 μM Tyr 04 in 50 mM HEPES pH 7.5, 0.01% BRIJ-35, 10 mM MgCl2, 2 mM MnCl2, 1 mM EGTA, 1 mM DTT. After the 1 hour Kinase Reaction incubation, 5 μL of a 1:64 dilution of Development Reagent B is added.

PDK1 Direct = biological target: T4, PDK1 Direct (Homo sapiens, UniProt O15530); assay: Z'-LYTE kinase selectivity assay PDK1
T4 sequence (O15530 1-556): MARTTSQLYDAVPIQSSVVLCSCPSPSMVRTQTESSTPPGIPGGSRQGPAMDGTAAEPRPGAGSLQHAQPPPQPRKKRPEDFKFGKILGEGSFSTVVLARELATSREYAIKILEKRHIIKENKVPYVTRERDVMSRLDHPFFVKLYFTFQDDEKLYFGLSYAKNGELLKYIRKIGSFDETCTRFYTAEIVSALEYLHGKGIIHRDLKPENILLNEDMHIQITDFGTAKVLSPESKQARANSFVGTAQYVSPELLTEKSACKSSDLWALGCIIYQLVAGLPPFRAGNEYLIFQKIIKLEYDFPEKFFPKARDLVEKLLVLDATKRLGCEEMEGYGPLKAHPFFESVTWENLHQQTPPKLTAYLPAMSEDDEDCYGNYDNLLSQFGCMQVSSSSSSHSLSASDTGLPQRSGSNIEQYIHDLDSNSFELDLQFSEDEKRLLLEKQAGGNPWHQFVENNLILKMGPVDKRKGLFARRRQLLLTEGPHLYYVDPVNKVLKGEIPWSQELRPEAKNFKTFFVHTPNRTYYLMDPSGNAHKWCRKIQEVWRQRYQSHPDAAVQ
From the text: as §1, §2, §3, §4
The 2×PDK1 Direct/Ser/Thr 07 (Z′-LYTE® Kinase Assay Kit—Ser/Thr 7 Peptide, # PV 3180) mixture is prepared in 50 mM Tris pH 8.5, 0.01% BRIJ-35, 10 mM MgCl2, 1 mM EGTA, 0.02% NaN3. The final 10 μL Kinase Reaction consists of 5.04-29.4 ng PDK1 Direct and 2 μM Ser/Thr 07 in 50 mM Tris/HEPES pH 8.0, 0.01% BRIJ-35, 10 mM MgCl2, 1 mM EGTA, 0.01% NaN3. After the 1 hour Kinase Reaction incubation, 5 μL of a 1:65000 dilution of Development Reagent A is added.

T3 sequence (P00533 25-1210): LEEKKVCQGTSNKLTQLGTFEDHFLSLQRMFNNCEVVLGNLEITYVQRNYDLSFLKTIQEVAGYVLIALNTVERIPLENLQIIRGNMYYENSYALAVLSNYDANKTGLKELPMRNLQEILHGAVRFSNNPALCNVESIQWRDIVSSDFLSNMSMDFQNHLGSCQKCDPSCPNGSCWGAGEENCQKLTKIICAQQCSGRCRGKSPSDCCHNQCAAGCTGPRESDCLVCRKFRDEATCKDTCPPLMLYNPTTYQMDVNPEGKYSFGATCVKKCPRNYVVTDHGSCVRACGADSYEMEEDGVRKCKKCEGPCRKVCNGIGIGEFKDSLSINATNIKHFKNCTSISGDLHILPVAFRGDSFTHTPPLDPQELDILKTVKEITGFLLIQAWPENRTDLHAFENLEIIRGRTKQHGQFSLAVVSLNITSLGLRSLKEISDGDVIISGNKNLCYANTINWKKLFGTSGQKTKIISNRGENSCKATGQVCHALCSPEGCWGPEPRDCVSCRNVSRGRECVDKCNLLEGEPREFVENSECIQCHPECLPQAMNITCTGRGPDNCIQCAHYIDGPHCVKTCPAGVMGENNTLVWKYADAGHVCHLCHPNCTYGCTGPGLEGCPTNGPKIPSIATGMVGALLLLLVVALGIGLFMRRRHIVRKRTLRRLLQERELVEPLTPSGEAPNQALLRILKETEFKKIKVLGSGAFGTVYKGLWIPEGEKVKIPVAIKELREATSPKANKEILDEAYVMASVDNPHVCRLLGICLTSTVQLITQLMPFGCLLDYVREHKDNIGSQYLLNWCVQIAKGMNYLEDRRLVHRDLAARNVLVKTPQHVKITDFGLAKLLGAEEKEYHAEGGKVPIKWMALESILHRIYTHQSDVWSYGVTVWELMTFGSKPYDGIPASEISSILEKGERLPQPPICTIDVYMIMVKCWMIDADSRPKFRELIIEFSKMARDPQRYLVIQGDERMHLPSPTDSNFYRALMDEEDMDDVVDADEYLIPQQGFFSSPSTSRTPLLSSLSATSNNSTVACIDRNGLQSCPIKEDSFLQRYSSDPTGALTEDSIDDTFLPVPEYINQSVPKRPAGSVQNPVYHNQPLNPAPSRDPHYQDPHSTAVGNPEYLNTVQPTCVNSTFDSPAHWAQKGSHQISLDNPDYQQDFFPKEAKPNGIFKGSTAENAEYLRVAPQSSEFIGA
T1 sequence (P78362 whole entry): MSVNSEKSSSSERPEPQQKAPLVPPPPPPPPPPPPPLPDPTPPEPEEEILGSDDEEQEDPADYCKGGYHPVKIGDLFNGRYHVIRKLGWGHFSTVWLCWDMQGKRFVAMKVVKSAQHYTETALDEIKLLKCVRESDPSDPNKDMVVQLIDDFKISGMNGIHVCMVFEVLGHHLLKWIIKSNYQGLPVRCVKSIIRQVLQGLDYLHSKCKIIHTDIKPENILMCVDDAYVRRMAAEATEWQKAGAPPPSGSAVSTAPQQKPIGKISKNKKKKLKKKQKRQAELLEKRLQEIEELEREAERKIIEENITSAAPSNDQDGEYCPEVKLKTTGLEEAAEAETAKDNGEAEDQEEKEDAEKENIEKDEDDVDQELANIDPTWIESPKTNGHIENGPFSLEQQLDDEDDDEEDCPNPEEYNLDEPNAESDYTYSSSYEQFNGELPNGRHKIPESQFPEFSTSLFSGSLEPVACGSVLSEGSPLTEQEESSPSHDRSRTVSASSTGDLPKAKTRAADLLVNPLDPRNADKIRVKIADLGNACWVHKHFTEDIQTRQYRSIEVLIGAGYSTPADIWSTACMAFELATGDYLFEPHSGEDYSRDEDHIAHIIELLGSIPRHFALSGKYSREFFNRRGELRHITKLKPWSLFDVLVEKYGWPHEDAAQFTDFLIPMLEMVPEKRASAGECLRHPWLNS

Row | SMILES | inhibition at 1 µM (SRPK2) [%] | inhibition at 1 µM (CHEK1 (CHK1)) [%] | inhibition at 1 µM (EGFR (ErbB1)) [%] | inhibition at 1 µM (PDK1 Direct) [%]
1 | C[C@@H]1Cc2nn(C)c(-c3ccccc3)c2-c2nc(Nc3ccn(CCN4CCN(CC(C)(C)O)CC4)n3)ncc21 [Compound I-3] | 49 | 31 | 72 | 9
2 | C[C@@H]1Cc2nn(C)c(-c3ccccc3)c2-c2nc(Nc3ccn(CCN4CCN(C)CC4)n3)ncc21 [Compound I-1] | 58 | 11 | 65 | -2
3 | CC(O)CN1CCN(CCn2ccc(Nc3ncc4c(n3)-c3c(nn(C)c3-c3ccccc3)C[C@H]4C)n2)CC1 (stereo partly shown) [Compound I-7] | 58 | 38 | 77 | 3

Second part, the molecule after the results:

Row | inhibition at 1 µM (SRPK2) [%] | inhibition at 1 µM (CHEK1 (CHK1)) [%] | inhibition at 1 µM (EGFR (ErbB1)) [%] | inhibition at 1 µM (PDK1 Direct) [%] | SMILES
4 | 49 | 26 | 65 | 6 | C[C@@H]1Cc2nn(C)c(-c3ccccc3)c2-c2nc(Nc3ccn(CCN4CCN(CC5CCCO5)CC4)n3)ncc21 (stereo partly shown) [Compound I-9]
5 | 38 | 25 | 53 | 20 | COCCN1CCN(CCn2ccc(Nc3ncc4c(n3)-c3c(nn(C)c3-c3ccccc3)C[C@H]4C)n2)CC1 [Compound I-11]
6 | 48 | 17 | 56 | 5 | C[C@@H]1Cc2nn(C)c(-c3ccccc3)c2-c2nc(Nc3ccn(CCN4CCN(CC(=O)OC5CCOCC5)CC4)n3)ncc21 [Compound I-8]
7 | 79 | 23 | 68 | 1 | C[C@@H]1Cc2nn(C)c(-c3ccccc3)c2-c2nc(Nc3ccn(CCN4CCOCC4)n3)ncc21 [Compound I-2]
